Values joined by “and” are separate entries in the source; they are usually repeats but may differ in a detail not shown here. Identical values can stand only once.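 Each compound was tested at five concentrations against cells in 96-well plates for 48 hours. GI50 is the concentration that inhibits growth by half. TGI denotes the concentration required for complete inhibition of growth.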
Tests used:
Assay in all cases: NCI-60 cell line screen, 48 h
NCI-H522 lung = system: NCI-H522 lung
IGROV1 ovarian = system: IGROV1 ovarian
SK-OV-3 ovarian = system: SK-OV-3 ovarian
A549 NSCLC = system: A549 NSCLC
HT29 colon = system: HT29 colon
UACC-257 melanoma = system: UACC-257 melanoma
EKVX NSCLC = system: EKVX NSCLC
SF-268 CNS = system: SF-268 CNS
RXF 393 renal = system: RXF 393 renal
OVCAR-5 ovarian = system: OVCAR-5 ovarian

| Compound | TGI (NCI-H522 lung) | TGI (IGROV1 ovarian) | TGI (SK-OV-3 ovarian) | TGI (A549 NSCLC) | TGI (HT29 colon) | TGI (UACC-257 melanoma) | TGI (EKVX NSCLC) | TGI (SF-268 CNS) | TGI (RXF 393 renal) | TGI (OVCAR-5 ovarian) [µM] | GI50 (NCI-H522 lung) [µM] | GI50 (SK-OV-3 ovarian) [µM] | GI50 (A549 NSCLC) [µM] | GI50 (HT29 colon) [µM] | GI50 (UACC-257 melanoma) [µM] | GI50 (EKVX NSCLC) [µM] | GI50 (SF-268 CNS) [µM] | GI50 (OVCAR-5 ovarian) [µM] | GI50 (RXF 393 renal) [µM] | GI50 (IGROV1 ovarian) [µM] |
| --- | --- | --- | --- | --- | --- | --- | --- | --- | --- | --- | --- | --- | --- | --- | --- | --- | --- | --- | --- | --- |
| COc1cccc2c1C(=N)c1c(O)c3c(c(O)c1C2=O)C[C@@](O)(C(C)=O)C[C@@H]3OC1CC(N)C(O)C(C)O1 (some centres undefined) | 2.4 µM and 1.13 µM and 1.91 µM | 6.39 µM and 9.25 µM | 1.85 µM and 4.8 µM and 13.6 µM | 0.926 µM and 1.46 µM and 1.01 µM | 7.19 µM and 4.43 µM and 1.71 µM | 5.01 µM and 12.1 µM and 6.67 µM | 3.82 µM and 7.64 µM and 2.29 µM | 3.07 µM and 4.61 µM and 5.69 µM | 2.95 µM and 3.8 µM and 0.872 µM | – | – | – | – | – | – | – | – | – | – | – |
| CCCC1C2=C(C(=O)OC2=O)C2C(CC)CC3=C(C(=O)OC3=O)C12 (centres undefined) | – | > 100 µM | > 100 µM | > 100 µM | > 100 µM | > 100 µM | > 100 µM | > 100 µM | – | > 100 | – | – | – | – | – | – | – | – | – | – |
| CNCc1ccc(C)c(NC(=O)c2ccc(Nc3nc(-c4ccccc4)c4ccccc4n3)cc2)c1 | 3.57 µM | – | 4.08 µM | 3.4 µM | 3.98 µM | 3.73 µM | 3.35 µM | 4.26 µM | 2.95 µM | 4.56 | 1.86 | 2.18 | 1.78 | 1.86 | 1.92 | 1.64 | 2.09 | 2.13 | 1.51 | – |
| NCCN.O=N[O-].O=N[O-].O=N[O-].O=N[O-].[Co+3].[K+] | > 100 µM | > 100 µM | > 100 µM | > 100 µM | > 100 µM | > 100 µM | > 100 µM | > 100 µM | – | > 100 | > 100 | > 100 | > 100 | > 100 | > 100 | > 100 | > 100 | > 100 | – | > 100 |
| O=C1/C(=C/c2ccc([N+](=O)[O-])s2)Oc2ccc(Cl)cc21 | 0.435 µM | 0.983 µM | 4.42 µM | 2.45 µM | 5.49 µM | 2.25 µM | – | 1.53 µM | 1.11 µM | 3.01 | 0.198 | 2.1 | 0.533 | 2.21 | 0.63 | – | 0.405 | 1.53 | 0.375 | 0.311 |
| CC(=O)OC12CCCCC1C1(CCCC1)NC2=O (centres undefined) | – | > 100 µM | > 100 µM | > 100 µM | > 100 µM | > 100 µM | > 100 µM | > 100 µM | > 100 µM | > 100 | – | – | – | – | – | – | – | – | – | – |
| Cn1c(N)cc(=O)nc1N | > 100 µM | > 100 µM | > 100 µM | > 100 µM | > 100 µM | – | > 100 µM | > 100 µM | – | > 100 | – | – | – | – | – | – | – | – | – | – |
| CN(C)CCCn1c2c(c3ccc([N+](=O)[O-])cc3c1=O)C(=O)c1ccccc1-2 | > 100 µM | > 100 µM | > 100 µM | 46.1 µM | 21.3 µM | > 100 µM | > 100 µM | > 100 µM | – | 49 | 4.2 | 28.1 | 17.5 | 3.76 | 38.1 | 84.9 | 9.53 | 15.3 | – | 4.98 |
| Cc1nc2c(=O)n(C)c(=O)nc-2n(-c2ccc(Cl)cc2)c1C | > 100 µM | > 100 µM | > 100 µM | > 100 µM | > 100 µM | > 100 µM | > 100 µM | > 100 µM | – | > 100 | – | – | – | – | – | – | – | – | – | – |
| COC(=O)c1c(OC(=O)c2ccccc2)noc1CC(=O)OC1C=CCCC1 (centres undefined) | > 100 µM | > 100 µM | > 100 µM | > 100 µM | – | > 100 µM | – | > 100 µM | > 100 µM | – | – | – | – | – | – | – | – | – | – | – |
| CC/C(=C(\c1ccccc1)c1ccc(OCC[N+](C)(C)C)cc1)c1ccccc1 | 18.7 µM | 27.8 µM | 34.5 µM | 35.3 µM | 29.6 µM | 24.4 µM | 33 µM | 32.4 µM | 36.9 µM | – | – | – | – | – | – | – | – | – | – | – |
| CCOC(=O)c1ccccc1NC(c1ccccc1)c1ccc2cccnc2c1O (centres undefined) | 11.6 µM | 24.1 µM | 56.4 µM | > 100 µM | > 100 µM | 21.5 µM | – | 29 µM | 23.2 µM | > 100 | 3.36 | 3.64 | 3.3 | 4.58 | 2.98 | – | 3.14 | 8.64 | 3.11 | 4.01 |
| Cc1nn(C(=O)CC(=O)Nc2ccccc2Cl)c(C)c1N=Nc1ccccc1Cl | – | > 100 µM | > 100 µM | > 100 µM | > 100 µM | > 100 µM | > 100 µM | > 100 µM | > 100 µM | > 100 | – | – | – | – | – | – | – | – | – | – |
| CC1SC(c2cccc(Oc3ccccc3)c2)N(CCc2cccs2)C1=O (centres undefined) | 2.12 µM | 3.33 µM | 5.32 µM | 3.67 µM | 2.93 µM | 3.3 µM | 1.92 µM | 3.6 µM | – | 5.89 | 0.717 | 1.92 | 0.864 | 1.08 | 1.25 | 0.368 | 1.18 | 1.94 | – | 1.07 |
| O=C1c2ccccc2CC1C1(O)C(=O)Nc2c(Cl)cc(Cl)cc21 (centres undefined) | 47.3 µM | – | > 100 µM | > 100 µM | > 100 µM | > 100 µM | > 100 µM | > 100 µM | 85.8 µM | > 100 | – | – | – | – | – | – | – | – | – | – |
| COc1ccc(C2CC(c3cccc(Nc4ccnc5cc(Cl)ccc45)c3)=NN2c2ccc(Cl)cc2)cc1 (centres undefined) | 23.2 µM | > 100 µM | 99.3 µM | > 100 µM | – | 51.4 µM | – | > 100 µM | 74.8 µM | 87 | 4.09 | 15 | 4.7 | – | 6.4 | – | 15.5 | 15.6 | 17.5 | 18.8 |
| CCc1cccc(C(C)C)c1C1C(=O)C(=O)N(c2nc3ccccc3s2)C(=O)C1=O | – | > 100 µM | > 100 µM | > 100 µM | > 100 µM | > 100 µM | > 100 µM | > 100 µM | > 100 µM | > 100 | – | – | – | – | – | – | – | – | – | – |
| COc1ccc(/C=C(\NC(=O)c2ccccc2)c2nc3ccccc3[nH]2)cc1 | > 100 µM | > 100 µM | 96.5 µM | > 100 µM | > 100 µM | 58.7 µM | > 100 µM | > 100 µM | – | 84.5 | – | – | – | – | – | – | – | – | – | – |

From PubChem BioAssay (NCI)
